Patent US20170304336A1, “COMBINATION” (priority 2014, published 2017)
Several values for one entry are separate records, joined by “and”; a condition that tells them apart may be missing. Equal values may be shown once.

Experiments:
[1] = Stability of statin/glycyrrhizic acid molecular complexes by content of glycyrrhizic acid; format: physicochemical; conditions: interval between testing points 7 months; European Pharmacopoeia 7.0 methodology
Method: Stability of these complexes was determined on the basis of quantitative content of glycyrrhizic acid (in percentage form). The interval between the testing points was 7 months. The testing methodology was taken from European Pharmacopoeia 7.0. […] This decline is related both to the conditions of synthesis (maximum decline observed for liquid-phase synthesis) and to the properties of the active ingredient itself.

[2] = test system: experimental rat hypercholesterolemia model; assay: Lipid spectrum of blood in experimental rat hypercholesterolemia model; format: in vivo, male rats of Wistar line
In short: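 Male Wistar rats fed a cholesterol, cholic acid and overheated-fat diet ad libitum for 90 days. Drugs given intragastrically daily on Days 31-90. Serum total cholesterol, LDL-CHS, HDL-CHS and triglycerides measured in tail-vein blood after 14-15 h fasting.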

[3] = test system: experimental rat hypercholesterolemia model; assay: Biochemical blood analysis (drug toxicity parameters) in rat hypercholesterolemia model; format: in vivo, male rats of Wistar line
In short: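 Serum AST, ALT, creatine phosphokinase, amylase, urea, total/direct/indirect bilirubin, glucose, K+ and Na+ measured by analyzer in tail-vein blood drawn after 14-15 h fast (9.00-11.00). Hypercholesterolemia induced by 90-day cholesterol/cholic acid/overheated-fat diet; daily intragastric dosing on Days 31-90.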

[4] = Mass coefficients of organs (pancreas, liver, kidneys) of rats; format: in vivo, male rats of Wistar line; conditions: M ± m; for weight coefficient, Kidneys / weight coefficient, Liver: in %
Method: To calculate mass coefficients the pancreas, liver and kidneys of the animals were extracted. The organs were weighed and the mass coefficients were calculated by the following formula:
Mass coefficient=(organ weight/animal body weight)×100%

[5] = Dynamics of body weight of rabbits (Schemes A and B); format: in vivo, male rabbits of Californian breed; conditions: for Body weight: Scheme A, M ± SEM
Description: The animals used in this experiment were involved reproductive male rabbits of Californian breed. 144 rabbits were used. The weight of the animals at the beginning of the trial ranged from 2.5 to 3 kg; the animals were 8 weeks old. Before the study the laboratory animals were contained for 27 and for 37 days in the separate coops for adaptation. During this period, clinical condition of animals was controlled every day by visual inspection. The criteria of the inclusion of animals in the experiment were health and body weight.
The introduction of drugs under two schemes was used to determine the mechanism of action of the studied drugs and the impact on the different stages of atherosclerosis.
Cholesterol administered daily in an oil solution at 0.3 g/kg of animal body weight, one time, 4 hours after drug administration. Cholesterol was dissolved in hot sunflower oil and administered to the animals through noninvasive probe into the stomach. The duration of administration amounted cholesterol from 1 to 90 days in subgroup A and 1 to 120 days in subgroup B. 2. After 30 days from the initiation of administration of cholesterol vitamin D3 (cholecalciferol) in a dose of 0.256 ml/kg was added to the diet of animals to enhance aortic lipidosis. Cholecalciferol was administered intragastrically via a probe from 31 till 60 days (Scheme A and B). […] In order to gain atherosclerotic lesions in aorta and atherosclerosis induction time reduction the animals were administered a dose of epinephrineequal to 0.04 mg/kg intravenously since 31 till 60 every five days (Scheme A and B).
Animal body weight was measured in accordance with standard procedures prior to the study, then—weekly (for calculating the volume of administration of the test compound and the reference drug) and immediately before euthanasia (on days 60 and 120)—to calculate the weight gain.
The administration was carried out intragastrically in accordance with standard procedures using atraumatic probe according to two treatment regimens every day at the same time.

[6] = Mass coefficients of liver and pancreas of rabbits; format: in vivo, male rabbits of Californian breed; conditions: for pancreatic mass coefficients relative to the control group: rosuvastatin 40 mg, AGA 100 mg
[7] = Day 30 of treatment (Day 60 of study), dose 90 mg
[8] = Day 60 of treatment (Day 90 of study), dose 90 mg
[9] = blood, Day 60 of the treatment (Day 90 of the study), AV + GA 10 + 90 mg, AV 10 mg, GA 90 mg
[10] = blood, Day 60 of the treatment (Day 90 of the study), FV + GA 80 + 90 mg, FV 80 mg, GA 90 mg
[11] = AV + GA 10 + 90 mg, AV 20 mg, GA 90 mg
[12] = FV + GA 80 + 90 mg, FV 80 mg, GA 90 mg
[13] = Day 30 of treatment (Day 60 of study), dose 10 mg
[14] = Day 30 of treatment (Day 60 of study), dose 20 mg
[15] = Day 60 of treatment (Day 90 of study), dose 10 mg
[16] = Day 60 of treatment (Day 90 of study), dose 20 mg
[17] = blood, Day 60 of the treatment (Day 90 of the study), RV + AGA 10 + 108 mg, RV 10 mg, AGA 108 mg
[18] = RV + AGA 10 + 108 mg, RV 10 mg, AGA 108 mg

For `CC1(C)[C@@H](O[C@H]2O[C@H](C(=O)O)[C@@H](O)[C@H](O)[C@H]2O[C@@H]2O[C@H](C(=O)O)[C@@H](O)[C@H](O)[C@H]2O)CC[C@]2(C)[C@H]3C(=O)C=C4[C@@H]5C[C@@](C)(C(=O)O)CC[C@]5(C)CC[C@@]4(C)[C@]3(C)CC[C@@H]12` [GA, (3β,18α)-30-hydroxy-11,30-dioxoolean-12-en-3-yl 2-O-β-D-glucopyranuronosyl-β-D-glucopyranosiduronic acid], the “stability with regard to time (content of glycyrrhizic acid)” value [1] was “unstable”, the “HDL CHS” value [2, 7] was 0.63 ± 0.04 mmol/L and the “LDL CHS” value [2, 7] was 4.00 ± 0.3 mmol/L. The TG [2, 7] was 1.6 ± 0.10 mmol/L, the “Total CHS” value [2, 7] was 5.2 ± 0.5 mmol/L and the “HDL CHS” value [2, 8] was 0.73 ± 0.04 mmol/L. The “LDL CHS” value [2, 8] was 3.90 ± 0.3 mmol/L, the TG [2, 8] was 1.6 ± 0.10 mmol/L and the “Total CHS” value [2, 8] was 4.5 ± 0.5 mmol/L. For the same compound, the ALT [3, 7] was 100 U/l, the AST [3, 7] was 125 U/l and 132 U/l and the Amylase [3, 7] was 618 U/l. The Bilirubin direct [3, 7] was 2.2 mg/dL, the Bilirubin indirect [3, 7] was 1.4 mg/dL and the Bilirubin total [3, 7] was 4.5 mg/dL. It also gave a CPK [3, 7] of 320 U/l, a Glucose [3, 7] of 111 mg/dL and a Potassium [3, 7] of 2.2 mM. It also gave a Sodium [3, 7] of 135 mmol, a Urea [3, 7] of 5.7 mmol/L and an ALT [3, 9] of 103 U/l. The AST [3, 9] was 115 U/l, the Amylase [3, 9] was 600 U/l and the Bilirubin direct [3, 9] was 2.2 mg/dL. The Bilirubin indirect [3, 9] was 1.8 mg/dL, the Bilirubin total [3, 9] was 4.3 mg/dL and the CPK [3, 9] was 233 U/l. It also gave a Glucose [3, 9] of 116 mg/dL, a Potassium [3, 9] of 3.1 mM and a Sodium [3, 9] of 123 mmol. For the same compound, the Urea [3, 9] was 5.0 mmol/L, the ALT [3, 10] was 103 U/l and the AST [3, 10] was 121 U/l. For the same compound, the Amylase [3, 10] was 600 U/l, the Bilirubin direct [3, 10] was 2.2 mg/dL and the Bilirubin indirect [3, 10] was 1.8 mg/dL. It also gave a Bilirubin total [3, 10] of 4.3 mg/dL, a CPK [3, 10] of 233 U/l and a Glucose [3, 10] of 116 mg/dL. It also gave a Potassium [3, 10] of 3.1 mM, a Sodium [3, 10] of 123 mmol and a Urea [3, 10] of 5.0 mmol/L. For the same compound, the “weight coefficient, Pancreas” value [4, 11] was 0.20 ± 0.01^2, the “weight coefficient, Kidneys” value [4, 11] was 0.80 ± 0.01 and the “weight coefficient, Liver” value [4, 11] was 4.41 ± 0.09. The “weight coefficient, Pancreas” value [4, 12] was 0.23 ± 0.01^2, the “weight coefficient, Kidneys” value [4, 12] was 0.80 ± 0.03 and the “weight coefficient, Liver” value [4, 12] was 4.42 ± 0.09.

Compound `CC(C)c1nc(N(C)S(C)(=O)=O)nc(-c2ccc(F)cc2)c1/C=C/[C@@H](O)C[C@@H](O)CC(=O)O` [RV, (3R,5S,6E)-7-[4-(4-fluorophenyl)-2-(N-methylmethanesulfonamido)-6-(propan-2-yl)pyrimidin-5-yl]-3,5-dihydroxyhept-6-enoic acid] has a Body weight ([5]; Day 0 (Before the study), dose group 20 mg) of 2874 ± 165 g, a Body weight ([5]; Day 0 (Before the study), dose group 40 mg) of 2787 ± 141 g and a Body weight ([5]; Day 28 (in the setting of pathology without treatment), dose group 20 mg) of 3350 ± 157 g. For the same compound, the Body weight ([5]; Day 28 (in the setting of pathology without treatment), dose group 40 mg) was 3428 ± 146 g, the Body weight ([5]; Day 90 (in the setting of pathology with treatment), dose 20 mg) was 4340 ± 53 g and the Body weight ([5]; Day 90 (in the setting of pathology with treatment), dose 40 mg) was 4348 ± 66 g. The “Body weight, M ± SEM, Day 120 (in the setting of pathology with treatment)” value ([5]; Scheme B, dose 20 mg) was 4699 ± 131^1 g, the “Body weight, M ± SEM, Day 0 (Before the study)” value ([5]; Scheme B, dose 20 mg, baseline) was 2665 ± 85 g and the “Body weight, M ± SEM, Day 56 (in the setting of pathology without treatment)” value ([5]; Scheme B, dose 20 mg, before treatment) was 3479 ± 106 g. For the same compound, the “HDL CHS” value [2, 13] was 0.81 ± 0.05 mmol/L, the “LDL CHS” value [2, 13] was 3.23 ± 0.21 mmol/L and the TG [2, 13] was 1.21 ± 0.10 mmol/L. The “Total CHS” value [2, 13] was 4.0 ± 0.2 mmol/L, the “HDL CHS” value [2, 14] was 0.9 ± 0.03 mmol/L and the “LDL CHS” value [2, 14] was 3.00 ± 0.10 mmol/L. For the same compound, the TG [2, 14] was 1.27 ± 0.03 mmol/L, the “Total CHS” value [2, 14] was 3.6 ± 0.1 mmol/L and the “HDL CHS” value [2, 15] was 0.81 ± 0.05 mmol/L. The “LDL CHS” value [2, 15] was 2.90 ± 0.21 mmol/L, the TG [2, 15] was 1.21 ± 0.10 mmol/L and the “Total CHS” value [2, 15] was 3.7 ± 0.2 mmol/L. The “HDL CHS” value [2, 16] was 0.91 ± 0.03 mmol/L, the “LDL CHS” value [2, 16] was 2.72 ± 0.20 mmol/L and the TG [2, 16] was 1.29 ± 0.03 mmol/L. The “Total CHS” value [2, 16] was 3.3 ± 0.1 mmol/L, the “Mass ratios, M ± SEM, Liver” value ([6]; Scheme A, dose 20 mg) was 3.8 ± 0.2 and the “Mass ratios, M ± SEM, Pancreas” value ([6]; Scheme A, dose 20 mg) was 0.07 ± 0.006. The “Mass ratios, M ± SEM, Liver” value ([6]; Scheme A, dose 40 mg) was 4.0 ± 0.1, the “Mass ratios, M ± SEM, Pancreas” value ([6]; Scheme A, dose 40 mg) was 0.09 ± 0.004 and the “pancreatic mass coefficients relative to the control group” value ([6]; Scheme A) was “significant increase”. The “Mass ratios, M ± SEM, Liver” value ([6]; Scheme B, dose 20 mg) was 3.8 ± 0.2, the “Mass ratios, M ± SEM, Pancreas” value ([6]; Scheme B, dose 20 mg) was 0.09 ± 0.004^12 and the “pancreatic mass coefficients relative to the control group” value ([6]; Scheme B) was “statistically significant increase”. For the same compound, the ALT [3, 13] was 179 U/l, the AST [3, 13] was 182 U/l and the Amylase [3, 13] was 641 U/l. The Bilirubin direct [3, 13] was 2.7 mg/dL, the Bilirubin indirect [3, 13] was 2.1 mg/dL and the Bilirubin total [3, 13] was 4.6 mg/dL. It also gave a CPK [3, 13] of 702 U/l, a Glucose [3, 13] of 158 mg/dL and a Potassium [3, 13] of 4.3 mM. The Sodium [3, 13] was 128 mmol, the Urea [3, 13] was 7.2 mmol/L and the ALT [3, 17] was 139 U/l. The AST [3, 17] was 190 U/l, the Amylase [3, 17] was 584 U/l and the Bilirubin direct [3, 17] was 2.9 mg/dL. For the same compound, the Bilirubin indirect [3, 17] was 1.7 mg/dL, the Bilirubin total [3, 17] was 4.8 mg/dL and the CPK [3, 17] was 597 U/l. It also gave a Glucose [3, 17] of 130 mg/dL, a Potassium [3, 17] of 2.2 mM and a Sodium [3, 17] of 130 mmol. For the same compound, the Urea [3, 17] was 6.4 mmol/L, the “weight coefficient, Pancreas” value [4, 18] was 0.35 ± 0.04 and the “weight coefficient, Kidneys” value [4, 18] was 0.75 ± 0.03. For the same compound, the “weight coefficient, Liver” value [4, 18] was 4.42 ± 0.11.
